Results from patent publication US12491172B2, “Treatment of diabetes” (priority 2019, dated 2025).

Key:
Format in all cases: cell-based, mouse
HIF-1α = HIF-1α and GLUT1 protein levels in isolated pancreatic islets (immunoblotting); settings: islets treated with GKA50 alone, 20 hours
[1] = test system: isolated pancreatic islets; assay: Cellular hypoxia in isolated islets (pimonidazole adducts)
Experimental: For experiments using the hypoxic marker pimonidazole, islets were cultured overnight in RPMI 1640 with 11 mM glucose and fasted for 1 hour in RPMI 1640 with 5.5 mM glucose. Subsequently islets were moved to medium containing 5.5 mM, 11 mM or 22 mM glucose, either with or without the glucokinase activator 10 μM of the glucokinase activator GKA50 (Sigma), 50 μM nifedipine (Sigma) or 100 μM diaxozide (Sigma) as indicated (FIGS. 1A and B). Islets were cultured during 8 hours before lysis. During the last 2 hours pimonidazole (Hypoxyprobe, HPI, Inc) was added to the medium. The hypoxic sample were cultured under 8% O2 during the last 2 hours before the lysis.
Islets were sonicated in RIPA buffer (50 mM Tris-HCl pH7.4, 150 mM NaCl, 1% NP-40, 0.5% Na deoxycholate, 0.1% SDS, 1 mM EDTA, protease inhibitor mix (Complete-Mini, Roche), 0.5 mM phenylmethylsulfonyl fluoride (PMSF) and 0.5 mM dithiothreitol). Lysates were cleared by centrifugation for 30 min at 14.000 r.p.m., and proteins were separated by SDS-PAGE and blotted onto nitrocellulose membranes. […]

[2] = test system: isolated pancreatic islets; assay: Static batch incubation (insulin secretion) of isolated islets
HIF-1α target genes = assay: Gene expression of HIF-1α target genes in isolated islets (RT-qPCR)
[3] = test system: isolated pancreatic islets; assay: Measurements of cytoplasmic free Ca2+-concentration in islets
[4] = islets treated with GKA50 alone, 20 hours

Row | SMILES | HIF-1α stabilization and GLUT1 protein levels (HIF-1α) | formation of pimonidazole adducts (cellular hypoxia) ([1]; isolated islets, 8 hours, 10 μM GKA50) | basal insulin secretion ([2]; 3.3 mM glucose, after 20 hours treatment and 2 hours fasting) | insulin release at high glucose concentration ([2]; 16.7 mM glucose, after 20 hours treatment) | secretory index ([2]; GKA50-treated islets in absence (1.2) or presence (3.4) of the HIF-1α inhibitor) [fold] | insulin content ([2]; islets treated with GKA50 with or without PX-478) | Gck mRNA level (HIF-1α target genes; islets treated with GKA50, compared to untreated islets) | gene expression of Glut1, Igfbp3, Hk2, Pgk1 and Pdk1 (HIF-1α target genes; [4]) | mRNA expression of Ldha and Bnip3 (HIF-1α target genes; [4]) | speed of [Ca2+]i response to glucose ([3]; 20 μM GKA50 with or without 50 μM PX-478) | basal [Ca2+]i oscillations ([3]; 3 mM glucose, after 20 hours 20 μM GKA50 with or without 50 μM PX-478 and 2 hours fasting) | levels of pimonidazole adducts ([1]; islets treated with GKA50 in the presence of 50 μM nifedipine or 100 μM diaxozide)
1 | COC[C@H](C)Oc1cc(O[C@@H](C)Cc2ccccc2)cc(C(=O)Nc2ccc(C(=O)O)cn2)c1 [GKA50] | led to HIF-1α stabilization and increased GLUT1 protein levels | increase in the formation of pimonidazole adducts | dose response-dependent increase in basal insulin secretion | without impacting on insulin release at high glucose concentration | 1.2 | no impact on insulin content | reduced | Induction | not induced | faster response to glucose | displayed [Ca^2+]i oscillations already under basal low glucose concentration | –
2 | CC1=Nc2ccc(Cl)cc2S(=O)(=O)N1 [diaxozide] | – | – | – | – | – | – | – | – | – | – | – | no decrease in levels of pimonidazole adducts
